{"source": "PubChem BioAssay AID1963984", "about": "(Molecular Pharmacology Branch, DTP, NCI, 2024)", "system": "233499-124-R-J3-PDC spheroids with HUVEC/MSC, viability", "experiment": "Anticancer human tumor 233499-124-R-J3-PDC patient-derived colon adenocarcinoma cell line growth inhibition [PI3K]", "settings": "for pIC50: curve of first compound; for viability, T/C: stronger effect = lower value", "outline": "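Combination activity was assessed by viability in multicellular tumor spheroids carrying HUVEC and MSC components. Agents were tested with PI3K inhibitors from a Cmax-based top dose (or 10 microM) downward in half-log increments.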", "key": {"[1]": {"settings": "second compound 0.0316 µM, first compound 0.0316 µM"}, "[2]": {"settings": "second compound 0.0316 µM, first compound 0.1 µM"}, "[3]": {"settings": "second compound 0.0316 µM, first compound 0.316 µM"}, "[4]": {"settings": "second compound 0.0316 µM, first compound 1 µM"}, "[5]": {"settings": "second compound 0.0316 µM, first compound 3.16 µM"}, "[6]": {"settings": "second compound 0.0316 µM, first compound 10 µM"}, "[7]": {"settings": "second compound 0.1 µM, first compound 0.0316 µM"}, "[8]": {"settings": "second compound 0.1 µM, first compound 0.1 µM"}, "[9]": {"settings": "second compound 0.1 µM, first compound 0.316 µM"}, "[10]": {"settings": "second compound 0.1 µM, first compound 1 µM"}, "[11]": {"settings": "second compound 0.1 µM, first compound 3.16 µM"}, "[12]": {"settings": "second compound 0.1 µM, first compound 10 µM"}, "[13]": {"settings": "second compound 0.316 µM, first compound 0.0316 µM"}, "[14]": {"settings": "second compound 0.316 µM, first compound 0.1 µM"}, "[15]": {"settings": "second compound 0.316 µM, first compound 0.316 µM"}, "[16]": {"settings": "second compound 0.316 µM, first compound 1 µM"}, "[17]": {"settings": "second compound 0.316 µM, first compound 3.16 µM"}, "[18]": {"settings": "second compound 0.316 µM, first compound 10 µM"}, "[19]": {"settings": "second compound 1 µM, first compound 0.0316 µM"}, "[20]": {"settings": "second compound 1 µM, first compound 0.1 µM"}, "[21]": {"settings": "second compound 1 µM, first compound 0.316 µM"}, "[22]": {"settings": "second compound 1 µM, first compound 1 µM"}, "[23]": {"settings": "second compound 1 µM, first compound 3.16 µM"}, "[24]": {"settings": "second compound 1 µM, first compound 10 µM"}, "[25]": {"settings": "second compound 3.16 µM, first compound 0.0316 µM"}, "[26]": {"settings": "second compound 3.16 µM, first compound 0.1 µM"}, "[27]": {"settings": "second compound 3.16 µM, first compound 0.316 µM"}, "[28]": {"settings": "second compound 3.16 µM, first compound 1 µM"}, "[29]": {"settings": "second compound 3.16 µM, first compound 3.16 µM"}, "[30]": {"settings": "second compound 3.16 µM, first compound 10 µM"}, "[31]": {"settings": "second compound 10 µM, first compound 0.0316 µM"}, "[32]": {"settings": "second compound 10 µM, first compound 0.1 µM"}, "[33]": {"settings": "second compound 10 µM, first compound 0.316 µM"}, "[34]": {"settings": "second compound 10 µM, first compound 1 µM"}, "[35]": {"settings": "second compound 10 µM, first compound 3.16 µM"}, "[36]": {"settings": "second compound 10 µM, first compound 10 µM"}}, "note": "pIC50: −log10 of the molar value."}
{"compound": "CNC(=O)c1ccc(N2C(=S)N(c3ccc(C#N)c(C(F)(F)F)c3)C(=O)C2(C)C)cc1F", "note": "+ Cc1nc(NC(=O)N2CCCC2C(N)=O)sc1-c1ccnc(C(C)(C)C(F)(F)F)c1;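 note: spheroids exposed to agents for seven days before readout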;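 for viability, T/C: percent viability relative to DMSO vehicle control taken as 100%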", "values": [{"measurement": "pIC50", "setting": "second compound 0.0316 µM", "value": 5.01}, {"measurement": "pIC50", "setting": "second compound 0.1 µM", "value": "< 5.00"}, {"measurement": "pIC50", "setting": "second compound 0.316 µM", "value": "< 5.00"}, {"measurement": "pIC50", "setting": "second compound 1 µM", "value": "< 5.00"}, {"measurement": "pIC50", "setting": "second compound 3.16 µM", "value": 5.34}, {"measurement": "pIC50", "setting": "second compound 10 µM", "value": "> 7.50"}, {"measurement": "viability, T/C", "setting": "[1]", "value": 101, "unit": "%"}, {"measurement": "viability, T/C", "setting": "[2]", "value": 107, "unit": "%"}, {"measurement": "viability, T/C", "setting": "[3]", "value": 80.8, "unit": "%"}, {"measurement": "viability, T/C", "setting": "[4]", "value": 100, "unit": "%"}, {"measurement": "viability, T/C", "setting": "[5]", "value": 102, "unit": "%"}, {"measurement": "viability, T/C", "setting": "[6]", "value": 49.1, "unit": "%"}, {"measurement": "viability, T/C", "setting": "[7]", "value": 111, "unit": "%"}, {"measurement": "viability, T/C", "setting": "[8]", "value": 72.8, "unit": "%"}, {"measurement": "viability, T/C", "setting": "[9]", "value": 66, "unit": "%"}, {"measurement": "viability, T/C", "setting": "[10]", "value": 84.1, "unit": "%"}, {"measurement": "viability, T/C", "setting": "[11]", "value": 85.9, "unit": "%"}, {"measurement": "viability, T/C", "setting": "[12]", "value": 73.2, "unit": "%"}, {"measurement": "viability, T/C", "setting": "[13]", "value": 95.8, "unit": "%"}, {"measurement": "viability, T/C", "setting": "[14]", "value": 100, "unit": "%"}, {"measurement": "viability, T/C", "setting": "[15]", "value": 70.6, "unit": "%"}, {"measurement": "viability, T/C", "setting": "[16]", "value": 88.3, "unit": "%"}, {"measurement": "viability, T/C", "setting": "[17]", "value": 85.9, "unit": "%"}, {"measurement": "viability, T/C", "setting": "[18]", "value": 56.2, "unit": "%"}, {"measurement": "viability, T/C", "setting": "[19]", "value": 105, "unit": "%"}, {"measurement": "viability, T/C", "setting": "[20]", "value": 70.3, "unit": "%"}, {"measurement": "viability, T/C", "setting": "[21]", "value": 78.9, "unit": "%"}, {"measurement": "viability, T/C", "setting": "[22]", "value": 61.5, "unit": "%"}, {"measurement": "viability, T/C", "setting": "[23]", "value": 60.5, "unit": "%"}, {"measurement": "viability, T/C", "setting": "[24]", "value": 51.3, "unit": "%"}, {"measurement": "viability, T/C", "setting": "[25]", "value": 59.1, "unit": "%"}, {"measurement": "viability, T/C", "setting": "[26]", "value": 51.1, "unit": "%"}, {"measurement": "viability, T/C", "setting": "[27]", "value": 61.2, "unit": "%"}, {"measurement": "viability, T/C", "setting": "[28]", "value": 54.5, "unit": "%"}, {"measurement": "viability, T/C", "setting": "[29]", "value": 57, "unit": "%"}, {"measurement": "viability, T/C", "setting": "[30]", "value": 37, "unit": "%"}, {"measurement": "viability, T/C", "setting": "[31]", "value": 24, "unit": "%"}, {"measurement": "viability, T/C", "setting": "[32]", "value": 34.6, "unit": "%"}, {"measurement": "viability, T/C", "setting": "[33]", "value": 28.1, "unit": "%"}, {"measurement": "viability, T/C", "setting": "[34]", "value": 31.8, "unit": "%"}, {"measurement": "viability, T/C", "setting": "[35]", "value": 29.3, "unit": "%"}, {"measurement": "viability, T/C", "setting": "[36]", "value": 19.6, "unit": "%"}]}
{"compound": "Cn1nccc1Nc1nccc(-c2ccn(C(CO)c3ccc(Cl)c(F)c3)c(=O)c2)n1", "note": "(centres undefined) + Cc1nc(NC(=O)N2CCCC2C(N)=O)sc1-c1ccnc(C(C)(C)C(F)(F)F)c1", "values": [{"measurement": "pIC50", "setting": "second compound 0.0316 µM", "value": "< 5.00"}, {"measurement": "pIC50", "setting": "second compound 0.1 µM", "value": 5.06}, {"measurement": "pIC50", "setting": "second compound 0.316 µM", "value": "< 5.00"}, {"measurement": "pIC50", "setting": "second compound 1 µM", "value": 5.50}, {"measurement": "pIC50", "setting": "second compound 3.16 µM", "value": 6.07}, {"measurement": "pIC50", "setting": "second compound 10 µM", "value": "> 7.50"}, {"measurement": "viability, T/C", "setting": "[1]", "value": 82.9, "unit": "%"}, {"measurement": "viability, T/C", "setting": "[2]", "value": 98.6, "unit": "%"}, {"measurement": "viability, T/C", "setting": "[3]", "value": 73, "unit": "%"}, {"measurement": "viability, T/C", "setting": "[4]", "value": 91.6, "unit": "%"}, {"measurement": "viability, T/C", "setting": "[5]", "value": 68.9, "unit": "%"}, {"measurement": "viability, T/C", "setting": "[6]", "value": 58.2, "unit": "%"}, {"measurement": "viability, T/C", "setting": "[7]", "value": 92.6, "unit": "%"}, {"measurement": "viability, T/C", "setting": "[8]", "value": 100, "unit": "%"}, {"measurement": "viability, T/C", "setting": "[9]", "value": 68.7, "unit": "%"}, {"measurement": "viability, T/C", "setting": "[10]", "value": 83.3, "unit": "%"}, {"measurement": "viability, T/C", "setting": "[11]", "value": 82.7, "unit": "%"}, {"measurement": "viability, T/C", "setting": "[12]", "value": 45.2, "unit": "%"}, {"measurement": "viability, T/C", "setting": "[13]", "value": 94.6, "unit": "%"}, {"measurement": "viability, T/C", "setting": "[14]", "value": 63.8, "unit": "%"}, {"measurement": "viability, T/C", "setting": "[15]", "value": 67.9, "unit": "%"}, {"measurement": "viability, T/C", "setting": "[16]", "value": 65.7, "unit": "%"}, {"measurement": "viability, T/C", "setting": "[17]", "value": 57.7, "unit": "%"}, {"measurement": "viability, T/C", "setting": "[18]", "value": 47.8, "unit": "%"}, {"measurement": "viability, T/C", "setting": "[19]", "value": 89.2, "unit": "%"}, {"measurement": "viability, T/C", "setting": "[20]", "value": 81.5, "unit": "%"}, {"measurement": "viability, T/C", "setting": "[21]", "value": 31.1, "unit": "%"}, {"measurement": "viability, T/C", "setting": "[22]", "value": 57.6, "unit": "%"}, {"measurement": "viability, T/C", "setting": "[23]", "value": 52.3, "unit": "%"}, {"measurement": "viability, T/C", "setting": "[24]", "value": 64.8, "unit": "%"}, {"measurement": "viability, T/C", "setting": "[25]", "value": 68.2, "unit": "%"}, {"measurement": "viability, T/C", "setting": "[26]", "value": 58.7, "unit": "%"}, {"measurement": "viability, T/C", "setting": "[27]", "value": 54.8, "unit": "%"}, {"measurement": "viability, T/C", "setting": "[28]", "value": 53.8, "unit": "%"}, {"measurement": "viability, T/C", "setting": "[29]", "value": 38.4, "unit": "%"}, {"measurement": "viability, T/C", "setting": "[30]", "value": 34.8, "unit": "%"}, {"measurement": "viability, T/C", "setting": "[31]", "value": 33.8, "unit": "%"}, {"measurement": "viability, T/C", "setting": "[32]", "value": 35.6, "unit": "%"}, {"measurement": "viability, T/C", "setting": "[33]", "value": 46, "unit": "%"}, {"measurement": "viability, T/C", "setting": "[34]", "value": 22.7, "unit": "%"}, {"measurement": "viability, T/C", "setting": "[35]", "value": 14.5, "unit": "%"}, {"measurement": "viability, T/C", "setting": "[36]", "value": 17.5, "unit": "%"}]}
